Assay results from ChEMBL document CHEMBL4308886, “Molecular features characterizing non-peptide selectivity to the human B1 and B2 bradykinin receptors” (Bioorg Med Chem Lett, 2019).

Experiments:
Format in all cases: cell-based
[1] = biological target: T1, B2 bradykinin receptor (Homo sapiens) (UniProt P30411); experiment: Displacement of [3H]bradykinin from human recombinant bradykinin B2 receptor expressed in CHO cells at 50 uM measured after 1 hr relative to control
T1 sequence (whole entry): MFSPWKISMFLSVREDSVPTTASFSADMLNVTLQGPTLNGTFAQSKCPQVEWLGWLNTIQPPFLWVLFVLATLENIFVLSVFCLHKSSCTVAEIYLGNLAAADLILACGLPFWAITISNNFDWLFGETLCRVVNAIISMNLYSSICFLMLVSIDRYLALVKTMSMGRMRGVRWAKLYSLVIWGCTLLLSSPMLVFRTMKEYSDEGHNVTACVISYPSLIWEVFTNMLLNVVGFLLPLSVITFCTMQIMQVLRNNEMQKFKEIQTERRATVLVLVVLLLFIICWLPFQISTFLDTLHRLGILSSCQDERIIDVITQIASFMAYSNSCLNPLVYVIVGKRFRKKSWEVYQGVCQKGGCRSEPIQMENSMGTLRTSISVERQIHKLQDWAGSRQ

[2] = biological target: T2, B1 bradykinin receptor (Homo sapiens) (UniProt P46663); experiment: Displacement of [3H][…] from human recombinant bradykinin B1 receptor expressed in CHO cells at 10 uM measured after 1 hr relative to control
T2 sequence (whole entry): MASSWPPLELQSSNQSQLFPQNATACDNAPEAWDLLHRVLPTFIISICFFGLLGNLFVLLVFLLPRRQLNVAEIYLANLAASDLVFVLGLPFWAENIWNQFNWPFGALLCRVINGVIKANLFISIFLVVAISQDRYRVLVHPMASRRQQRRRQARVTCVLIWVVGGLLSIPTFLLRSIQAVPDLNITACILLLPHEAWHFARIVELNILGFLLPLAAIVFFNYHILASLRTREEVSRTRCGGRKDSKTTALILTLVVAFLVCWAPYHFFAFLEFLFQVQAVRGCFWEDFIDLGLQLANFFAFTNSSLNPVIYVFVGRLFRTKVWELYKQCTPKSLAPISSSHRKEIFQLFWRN

[3] = biological target: T2, B1 bradykinin receptor (Homo sapiens); experiment: Displacement of [3H][…] from human recombinant bradykinin B1 receptor expressed in CHO cells at 50 uM measured after 1 hr relative to control
[4] = biological target: T1, B2 bradykinin receptor (Homo sapiens); experiment: Displacement of [3H]bradykinin from human recombinant bradykinin B2 receptor expressed in CHO cells at 10 uM measured after 1 hr relative to control

| Compound | inhibition [1] [%] | inhibition [2] [%] | inhibition [3] [%] | inhibition [4] [%] |
| --- | --- | --- | --- | --- |
| CC1CCC(N2NC(=O)/C(=C\c3cccn3-c3ccc(S(N)(=O)=O)cc3)C2=O)CC1Cl (configuration not stated) | 41 | 31 |  |  |
| COc1cc(NC(C)CCCN)c2nc(C)ccc2c1OC1CCC(F)CC1 (configuration not stated) | 45 |  | 12 |  |
| COc1cc(NCCCCCCC2CCCCN2)c2ncccc2c1 (configuration not stated) | 36 |  | 31 |  |

Further lines, results first:

| inhibition [1] [%] | inhibition [2] [%] | inhibition [3] [%] | inhibition [4] [%] | Compound |
| --- | --- | --- | --- | --- |
|  | 32 |  | 34 | CC1=C(C#N)C(=O)N(CCc2c[nH]c3ccccc23)C(=O)/C1=C\Nc1ccc(S(N)(=O)=O)cc1 |
| 65 |  | 46 |  | COc1cc(NCCCCCCCC2CCCCN2)c2ncccc2c1 (configuration not stated) |
|  | 14 |  | 33 | Cc1ccc(NC2=NC(=O)/C(=C/c3ccc(-c4ccc(C(=O)O)cc4)o3)S2)cc1Cl |
